The source of these data is patent US9688702B2, “Alpha-amino boronic acid derivatives, selective immunoproteasome inhibitors” (Ares Trading S.A, priority 2011, dated 2017).

Test [1] deals with LMP7 (purified human immuno proteasome) (Homo sapiens, UniProt P28062). Description: Determination of LMP7 activity (fluorescence intensity assay, Suc-LLVY-AMC). Format: biochemical. The settings on record: for IC50: 40 μM Suc-LLVY-AMC, 37° C. In a few lines:
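Purified human immunoproteasome (0.5 nM or 0.25 nM) preincubated 30 min at 37 °C with compounds (10 μM to 38 pM) in 50 mM Tris pH 7.4, 0.03% SDS. Suc-LLVY-AMC added at 40 μM; after 90 min at 37 °C, fluorescence read at ex 350/em 450 nm.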

Test [2] deals with Beta5 (purified human constitutive proteasome) (Homo sapiens, UniProt P28074). Nature of the test: Determination of Beta5 activity (fluorescence intensity assay, Suc-LLVY-AMC). In kind it is biochemical. The settings on record: purified human constitutive proteasome 1.0 nM, 40 μM Suc-LLVY-AMC, 37° C. In a few lines: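 Purified human constitutive proteasome (1.0 nM) was preincubated 30 min at 37 °C with compounds (10 μM to 38 pM) in 50 mM Tris pH 7.4, 0.03% SDS. Suc-LLVY-AMC (40 μM) was then added and fluorescence (ex 350/em 450 nm) read after 90 min at 37 °C.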

Setting [3] is: purified human immuno proteasome 0.5 nM.
Where [4] appears, read: purified human immuno proteasome 0.25 nM (examples 79, 80, 83, 84, 85, 87, 88, 89, 90, 91, 93, 94, 96, 97, 101 and 110).

Molecules are shown by their SMILES. Counter-ions that a name gives are not always drawn. Where only a bound is given, the exact number is not on record here.

On to `O=C(CCc1ccccc1F)N[C@@H](Cc1coc2ccccc12)B(O)O` [Example 81, (R)-(2-(benzofuran-3-yl)-1-(3-(2-fluorophenyl)propanamido)ethyl) boronic acid], for which, in test [1], the “Selectivity LMP7 vs Beta5” value is recorded as “++ (++: 10 < Selectivity < 30)”. In addition, the IC50 in test [1] (setting [3]) and in test [2] was under 50 nM throughout.

For `COc1ccccc1CCC(=O)N[C@@H](Cc1coc2ccccc12)B(O)O` [Example 82], the “Selectivity LMP7 vs Beta5” value in test [1] was “++ (++: 10 < Selectivity < 30)”. The IC50 in test [1] (setting [3]) and in test [2] was under 50 nM in each case.

Take `O=C(Cc1cnc[nH]1)N[C@@H](Cc1coc2ccccc12)B(O)O` [Example 83, (R)-(1-(2-(1H-imidazol-5-yl)acetamido)-2-(benzofuran-3-yl)ethyl) boronic acid hydrochloride]: the “Selectivity LMP7 vs Beta5” value in test [1] is “++ (++: 10 < Selectivity < 30)”. Moreover, the IC50 was under 50 nM in test [1] (setting [4]) and 50 to 500 nM in test [2].

Take `COc1cccc(CCC(=O)N[C@@H](Cc2coc3ccccc23)B(O)O)c1` [Example 84, (R)-(2-(benzofuran-3-yl)-1-(3-(3-methoxyphenyl)propanamido)ethyl) boronic acid]: the “Selectivity LMP7 vs Beta5” value in test [1] was “++ (++: 10 < Selectivity < 30)”. The concentration for half-maximal inhibition (IC50) in test [1] (setting [4]) and in test [2] was under 50 nM throughout.

As for `O=C(CCc1cccc(F)c1)N[C@@H](Cc1coc2ccccc12)B(O)O` [Example 85, (R)-(2-(benzofuran-3-yl)-1-(3-(3-fluorophenyl)propanamido)ethyl) boronic acid], in test [1], the “Selectivity LMP7 vs Beta5” value was “+++ (+++: Selectivity > 30)”. The IC50 in test [1] (setting [4]) and in test [2] was under 50 nM each time.

On to `O=C(CCC1CCCCC1)N[C@@H](Cc1coc2ccccc12)B(O)O` [Example 86, (R)-(2-(benzofuran-3-yl)-1-(3-cyclohexylpropanamido)ethyl)boronic acid], for which, in test [1], the “Selectivity LMP7 vs Beta5” value is “+++ (+++: Selectivity > 30)”. Moreover, the IC50 in test [1] (setting [3]) is under 50 nM; in test [2], 50 to 500 nM.

With `O=C(CCn1c(=O)sc2ccccc21)N[C@@H](Cc1coc2ccccc12)B(O)O` [Example 87, (R)-(2-(benzofuran-3-yl)-1-(3-(2-oxobenzo[d]thiazol-3(2H)-yl)propanamido)ethyl)boronic acid], in test [1], the “Selectivity LMP7 vs Beta5” value is listed as “++ (++: 10 < Selectivity < 30)”. In addition, the IC50 in test [1] (setting [4]) and in test [2] was under 50 nM throughout.

For `O=C(CCn1cnc2ccccc21)N[C@@H](Cc1coc2ccccc12)B(O)O` [Example 88, (R)-(1-(3-(1H-benzo[d]imidazol-1-yl)propanamido)-2-(benzofuran-3-yl)ethyl)boronic acid], the “Selectivity LMP7 vs Beta5” value in test [1] is “++ (++: 10 < Selectivity < 30)”. In addition, the IC50 in test [1] (setting [4]) and in test [2] was under 50 nM throughout.

`O=C(CCn1cc(-c2ccccc2)nn1)N[C@@H](Cc1coc2ccccc12)B(O)O` [Example 89, (R)-(2-(benzofuran-3-yl)-1-(3-(4-phenyl-1H-1,2,3-triazol-1-yl)propanamido)ethyl)boronic acid]: the “Selectivity LMP7 vs Beta5” value in test [1] is listed as “++ (++: 10 < Selectivity < 30)”. Besides, the 50% inhibitory concentration (IC50) in test [1] (setting [4]) and in test [2] was under 50 nM each time.

As to `COc1ccc(-n2cc(CCC(=O)N[C@@H](Cc3coc4ccccc34)B(O)O)nn2)cc1` [Example 90, (R)-(2-(benzofuran-3-yl)-1-(3-(1-(4-methoxyphenyl)-1H-1,2,3-triazol-4-yl)propanamido)ethyl)boronic acid], the “Selectivity LMP7 vs Beta5” value in test [1] is listed as “+++ (+++: Selectivity > 30)”. The IC50 in test [1] (setting [4]) and in test [2] was under 50 nM throughout.

Regarding `CN(CC(=O)N[C@@H](Cc1coc2ccccc12)B(O)O)S(C)(=O)=O` [Example 91, (R)-(2-(benzofuran-3-yl)-1-(2-(N-methylmethylsulfonamido)acetamido)ethyl)boronic acid], the “Selectivity LMP7 vs Beta5” value in test [1] was “+++ (+++: Selectivity > 30)”. In addition, the IC50 is under 50 nM in test [1] (setting [4]) and 50 to 500 nM in test [2].

In the case of `O=C(CCN1CCNCC1)N[C@@H](Cc1coc2ccccc12)B(O)O` [Example 92, (R)-(2-(benzofuran-3-yl)-1-(3-(piperazin-1-yl)propanamido)ethyl) boronic acid hydrochloride], the “Selectivity LMP7 vs Beta5” value in test [1] is reported as “+++ (+++: Selectivity > 30)”. In addition, the IC50 was under 50 nM in test [1] (setting [3]) and 50 to 500 nM in test [2].

Turning to `O=C(CCc1ccncc1)N[C@@H](Cc1coc2ccccc12)B(O)O` [Example 93, (R)-(2-(benzofuran-3-yl)-1-(3-(pyridin-4-yl)propanamido)ethyl)boronic acid hydrochloride], the “Selectivity LMP7 vs Beta5” value in test [1] is “++ (++: 10 < Selectivity < 30)”. Moreover, the IC50 in test [1] (setting [4]) and in test [2] was under 50 nM in each case.

Take `O=C(CCc1ccccc1)N[C@@H](Cc1coc2ccccc12)B(O)O` [Example 94, (R)-(2-(benzofuran-3-yl)-1-(3-phenylpropanamido)ethyl)boronic acid]: in test [1], the “Selectivity LMP7 vs Beta5” value was “+++ (+++: Selectivity > 30)”. The IC50 in test [1] (setting [4]) and in test [2] was under 50 nM throughout.

In the case of `CC(=O)N[C@@H](Cc1ccc2ccccc2c1)B(O)O` [Example 95, (R)-(1-acetamido-2-(naphthalen-2-yl)ethyl)boronic acid], in test [1], the “Selectivity LMP7 vs Beta5” value is “+++ (+++: Selectivity > 30)”. Also, the results for the half-inhibitory concentration (IC50) in test [1] (setting [3]) and in test [2] were 50 to 500 nM and 500 to 5000 nM, respectively.

In the case of `O=C(CCn1c(=O)sc2ccccc21)N[C@@H](Cc1ccc2ccccc2c1)B(O)O` [Example 96, (R)-(2-(naphthalen-2-yl)-1-(3-(2-oxobenzo[d]thiazol-3(2H)-yl)propanamido)ethyl)boronic acid], the “Selectivity LMP7 vs Beta5” value in test [1] was “+++ (+++: Selectivity > 30)”. Moreover, the IC50 in test [1] (setting [4]) and in test [2] was under 50 nM each time.

Turning to `O=C(CCn1cnc2ccccc21)N[C@@H](Cc1ccc2ccccc2c1)B(O)O` [Example 97, (R)-(1-(3-(1H-benzo[d]imidazol-1-yl)propanamido)-2-(naphthalen-2-yl)ethyl)boronic acid], in test [1], the “Selectivity LMP7 vs Beta5” value is recorded as “++ (++: 10 < Selectivity < 30)”. Moreover, the IC50 in test [1] (setting [4]) and in test [2] was under 50 nM each time.

On to `O=C(CCc1cn(-c2ccccc2)nn1)N[C@@H](Cc1ccc2ccccc2c1)B(O)O` [Example 98, (R)-(2-(naphthalen-2-yl)-1-(3-(1-phenyl-1H-1,2,3-triazol-4-yl)propanamido)ethyl)boronic acid], for which, in test [1], the “Selectivity LMP7 vs Beta5” value is given as “++ (++: 10 < Selectivity < 30)”. The half-maximal inhibitory concentration (IC50) in test [1] (setting [3]) was under 50 nM; in test [2], 50 to 500 nM.

In the case of `O=C(CCc1cn(-c2cccnc2)nn1)N[C@@H](Cc1ccc2ccccc2c1)B(O)O` [Example 99, (R)-(2-(naphthalen-2-yl)-1-(3-(1-(pyridin-3-yl)-1H-1,2,3-triazol-4-yl)propanamido)ethyl)boronic acid], the “Selectivity LMP7 vs Beta5” value in test [1] is on record as “+++ (+++: Selectivity > 30)”. The IC50 in test [1] (setting [3]) was under 50 nM; in test [2], 500 to 5000 nM.

Take `COc1ccc(-n2cc(CCC(=O)N[C@@H](Cc3ccc4ccccc4c3)B(O)O)nn2)cc1` [Example 100, (R)-(1-(3-(1-(4-methoxyphenyl)-1H-1,2,3-triazol-4-yl)propanamido)-2-(naphthalen-2-yl)ethyl)boronic acid]: the “Selectivity LMP7 vs Beta5” value in test [1] is given as “++ (++: 10 < Selectivity < 30)”. Also, the half-inhibitory concentration (IC50) in test [1] (setting [3]) is under 50 nM; in test [2], 50 to 500 nM.

`O=C(CCn1c(=O)sc2ccccc21)N[C@@H](Cc1c[nH]c2ccccc12)B(O)O` [Example 101]: in test [1], the “Selectivity LMP7 vs Beta5” value is recorded as “+++ (+++: Selectivity > 30)”. Besides, the IC50 in test [1] (setting [4]) and in test [2] was under 50 nM each time.

Regarding `Cn1ncc2cc(C[C@H](NC(=O)CCn3c(=O)sc4ccccc43)B(O)O)ccc21` [Example 102, (R)-(2-(1-methyl-1H-indazol-5-yl)-1-(3-(2-oxobenzo[d]thiazol-3(2H)-yl)propanamido)ethyl)boronic acid], in test [1], the “Selectivity LMP7 vs Beta5” value is “++ (++: 10 < Selectivity < 30)”. In addition, the concentration for half-maximal inhibition (IC50) in test [1] (setting [3]) and in test [2] was under 50 nM throughout.

As for `Cn1ncc2cc(C[C@H](NC(=O)CCn3cc(-c4ccccc4)nn3)B(O)O)ccc21` [Example 103, (R)-(2-(1-methyl-1H-indazol-5-yl)-1-(3-(4-phenyl-1H-1,2,3-triazol-1-yl)propanamido)ethyl)boronic acid], the “Selectivity LMP7 vs Beta5” value in test [1] is “++ (++: 10 < Selectivity < 30)”. Besides, the IC50 in test [1] (setting [3]) and in test [2] was under 50 nM throughout.

Regarding `O=C(CCn1cc(-c2ccccc2)nn1)N[C@@H](Cc1csc2ccccc12)B(O)O` [Example 104, (R)-(2-(benzo[b]thiophen-3-yl)-1-(3-(4-phenyl-1H-1,2,3-triazol-1-yl)propanamido)ethyl)boronic acid], the “Selectivity LMP7 vs Beta5” value in test [1] is listed as “+ (+: Selectivity < 10)”. The IC50 in test [1] (setting [3]) and in test [2] was under 50 nM in each case.

`O=C(CCn1c(=O)sc2ccccc21)N[C@@H](Cc1csc2ccccc12)B(O)O` [Example 105, (R)-(2-(benzo[b]thiophen-3-yl)-1-(3-(2-oxobenzo[d]thiazol-3(2H)-yl)propanamido)ethyl)boronic acid]: in test [1], the “Selectivity LMP7 vs Beta5” value was “++ (++: 10 < Selectivity < 30)”. Moreover, the IC50 in test [1] (setting [3]) and in test [2] was under 50 nM throughout.

Broadly, the IC50 is the midpoint of a concentration-inhibition curve. A lower IC50 goes with greater potency in that assay.
